Data taken from US5919761A, “Peptides for heparin and low molecular weight heparin anticoagulation reversal” (The Board of Regents of the University of Michigan, priority 1995, dated 1999).
Peptide text beside a SMILES is read from it.

Tests used:
[1] = Platelet and white cell counts after standard heparin reversal, canine study; format: in vivo; settings: dogs, 3 minutes post-reversal, resolved by about 30 minutes
Protocol: (§1) Anticoagulation reversal was assessed by a number of standard coagulation tests performed upon samples of venous blood: activated clotting time (ACT), prothrombin time (PT), activated partial thromboplastin time (aPTT), thrombin clotting time (TCT), heparin concentration by assay for FXa inhibitory activity (FXa), white cell count (WBC), and platelet counts (PLT). Measurements were made 3 minutes prior to heparin reversal (baseline) and 3 minutes and 30 minutes post-administration of the heparin reversal agent. The "Heparin" row sets forth the observed reversal as a consequence of expected heparin metabolism or degradation alone.

[2] = Hemodynamic studies and total toxicity score after standard heparin reversal, canine study; settings: dogs; for ΔMAP: average maximum decline in first five minutes after peptide administration; for average total toxicity score (TTS±SD): first 5 minutes after reversal, more negative = more toxic; for ΔCO / ΔVO2: maximum percent change
Protocol: As used hereinafter, the peptides will be identified by their total cationic charge value, e.g., [+8], [+16], etc.
Hemodynamic studies were conducted by measuring mean arterial pressure (MAP), heart rate (HR), and maximum percent changes in cardiac output (CO) and systemic oxygen consumption (VO2).
Total toxicity scores (TTS) were developed that reflected maximum declines in each of four parameters (MAP, CO, VO2 and HR) over the first 5 minutes after reversal, the latter being the time of expected greatest adverse hemodynamic effect. The maximum changes occurring in an individual dog over the first 5 minutes were divided by the standard deviation derived from the entire group of tested animals and the four scores were added, resulting in a TTS for each individual dog. The TTS values for each dog were then summed to obtain an average TTS and SD for each peptide studied.

[3] = Hemodynamic studies and total toxicity score after LMWH reversal, canine study; settings: dogs
Protocol: (§2) Hemodynamic studies were conducted by measuring mean arterial pressure (MAP) in mm Mercury, maximum percent changes in cardiac output (CO) and systemic oxygen consumption (VO2), and heart rate (HR) in beats per minute. Measurements and calculations were made at baseline, before LMWH administration, 3 minutes before reversal, every 30 seconds for 5 minutes after reversal, and at 10, 20, and 30 minutes after reversal.
Total toxicity scores (TTS) were developed that reflected maximum declines in each of four parameters (MAP, CO, VO2 and HR) over the first 5 minutes after reversal. The maximum changes occurring in an individual dog over the first 5 minutes were divided by the standard deviation derived from the entire group of tested animals and the four scores were added, resulting in a TTS for each individual dog. The TTS values for each dog were then summed to obtain an average TTS and SD for each peptide studied. The more negative the value of TTS, the more toxic the compound.

[4] = Platelet count, leukocyte count and bleeding time after LMWH reversal at different rates, canine study; format: in vivo, dogs; settings: dogs, Logiparin; administered over 10 sec
Protocol: (§3) The anticoagulation-reversing agents were administered rapidly over 10 seconds to maximize hemodynamic effects or more slowly over a 3 minute interval. Changes in LMWH anticoagulation occurring from metabolism alone were determined in a separate group of dogs not given any reversal agent.

[5] = Hemodynamic studies and total toxicity score after LMWH reversal at different rates, canine study; settings: dogs, Logiparin; administered over 10 sec
Protocol: as §3, §2
TTS were developed that reflected maximum declines in each of four parameters (MAP, CO, VO2 and HR) over the first 5 minutes after reversal in the same manner as described hereinabove.

[6] = Platelet and white blood cell count after LMWH reversal, canine study; format: in vivo; settings: dogs, Logiparin
Protocol: In addition to the measurements reported on Table 6, studies were conducted to measure the activated partial thromboplastin time (aPTT), platelet count, and white blood cell count. […] However, the [+18B] variant produced greater aPTT reversal than protamine at the 3, 10 and 30 minute measurements (64%, 95%, and 93%, respectively, as compared to 50%, 83%, and 78%, respectively, for protamine).

LMWH (LHN-1, Logiparin) [7] = assay: Percent reversal of LMWH anticoagulation, agents administered at different rates, canine study; format: in vivo, dogs
Protocol: Anticoagulation reversal was assessed by a number of standard coagulation tests performed upon samples of venous blood in the manner described hereinabove. Measurements were made 3 minutes prior to heparin reversal (baseline) and 3 minutes, 10 minutes, and 30 minutes post-administration of the heparin reversal agent.

LMWH (LHN-1, Logiparin) [8] = assay: Percent reversal of low molecular weight heparin anticoagulation, in vivo canine study, coagulation tests; set-up: species or system dogs; settings: for aPTT reversal: Logiparin
Protocol: Anticoagulation reversal was assessed by a number of standard coagulation tests performed upon samples of venous blood: activated clotting time (ACT), heparin concentration by assay for FXa inhibitory activity (FXa), thrombin clotting time (TCT), and heparin concentration by assay for FIIa inhibitory activity (FIIa). Measurements were made 3 minutes prior to heparin reversal (baseline) and 3 minutes, 10 minutes, and 30 minutes post-administration of the heparin reversal agent. […] The coagulation data were corrected for naturally occurring metabolism.

[9] = test system: standard, unfractionated heparin; assay: Percent reversal of standard heparin anticoagulation by variant peptides and protamine, in vivo canine study, coagulation tests; set-up: species or system dogs; settings: for Percent reversal of heparin anticoagulation, ACT: heparin 150 IU/kg IV, agent 1.5 mg/kg IV over 10 seconds
Protocol: Data are expressed as a mean ±1 SD. Statistical analysis using linear regression for determination of correlation coefficients, and analysis of variance (ANOVA) or unpaired two-way Student's t-test; p<0.05 was accepted as statistically significant.
as §1

[10] = Logiparin, maximum percent change
[11] = administered over 10 sec, 3 min
[12] = administered over 10 sec, 10 min
[13] = administered over 10 sec, 30 min

In the case of `NCCCC[C@H](NC(=O)[C@H](CCCCN)NC(=O)[C@H](CCCCN)NC(=O)[C@H](CCCCN)NC(=O)CNC(=O)CNC(=O)[C@H](CCCCN)NC(=O)[C@H](CCCCN)NC(=O)[C@H](CCCCN)NC(=O)[C@H](CCCCN)NC(=O)CNC(=O)CNC(=O)[C@H](CCCCN)NC(=O)[C@H](CCCCN)NC(=O)[C@H](CCCCN)NC(=O)[C@H](CCCCN)NC(=O)CNC(=O)CNC(=O)[C@H](CCCCN)NC(=O)[C@H](CCCCN)NC(=O)[C@H](CCCCN)NC(=O)[C@H](CCCCN)NC(=O)CNC(=O)CNC(=O)[C@H](CCCCN)NC(=O)[C@H](CCCCN)NC(=O)[C@H](CCCCN)NC(=O)[C@H](CCCCN)NC(=O)[C@@H]1CCCN1)C(=O)O` [[+20], P(K4 G2)4 K4] (H-PKKKKGGKKKKGGKKKKGGKKKKGGKKKK-OH), the platelet counts [1] is reported as “thrombocytopenia”, the ΔHR [2] is reported as -38 and the ΔMAP [2] is reported as -31. For the same compound, the “average total toxicity score (TTS±SD)” value [2] was -6.1±3.5, the ΔCO [2] was -40% and the ΔVO2 [2] was -31%.
For `CC(=O)N1CCC[C@H]1C(=O)N[C@@H](C)C(=O)N[C@@H](CCCCN)C(=O)N[C@@H](CCCCN)C(=O)N[C@@H](C)C(=O)N[C@@H](C)C(=O)N[C@@H](CCCCN)C(=O)N[C@@H](CCCCN)C(=O)N[C@@H](C)C(=O)N[C@@H](CCCCN)C(=O)N[C@@H](CCCCN)C(=O)N[C@@H](C)C(=O)N[C@@H](C)C(=O)N[C@@H](CCCCN)C(=O)N[C@@H](CCCCN)C(=O)N[C@@H](C)C(=O)N[C@@H](CCCCN)C(=O)N[C@@H](CCCCN)C(=O)N[C@@H](C)C(=O)N[C@@H](C)C(=O)N[C@@H](CCCCN)C(=O)N[C@@H](CCCCN)C(=O)N[C@@H](C)C(=O)N[C@@H](CCCCN)C(=O)N[C@@H](CCCCN)C(=O)N[C@@H](C)C(=O)N[C@@H](C)C(=O)N[C@@H](CCCCN)C(=O)N[C@@H](CCCCN)C(=O)N[C@@H](C)C(=O)N[C@@H](CCCCN)C(=O)N[C@@H](CCCCN)C(N)=O` [[+18B], acetyl-PA(K2 A2 K2 A)4 K2 -amide] (Ac-PAKKAAKKAKKAAKKAKKAAKKAKKAAKKAKK-NH2), the “Total Toxicity Score” value ([3]; LMWH, 50% less dose (1:2 peptide to LMWH)) was “about -1.62”, the “maximum mean increase in pulmonary artery diastolic (PAD) pressure” value ([3]; Logiparin) was “no increase” and the “maximum mean increase in pulmonary artery systolic (PAS) pressure” value ([3]; Logiparin) was “no increase”. For the same compound, the ΔHR ([3]; Logiparin) was -9 beats per minute, the ΔMAP ([3]; Logiparin) was -10 mm Mercury and the “Total Toxicity Score” value ([3]; Logiparin, first 5 minutes after reversal, 1:1 peptide to LMWH) was -4.1 ± 1.6. For the same compound, the ΔCO [3, 10] was -18%, the ΔVO2 [3, 10] was -12% and the “Maximal decline in leukocyte count” value [4] was -21%. For the same compound, the Maximal thrombocytopenia [4] was -56%, the “Total Toxicity Score” value [5] was -3.1 ± 1.5 and the ΔCO [5] was -18%. The ΔHr [5] was -9 beats per minute, the ΔMAP [5] was -10 mm Mercury and the ΔVO2 [5] was -12%. The “decline in white blood cell count” value [6] was “greatest”, the “mean decline in platelet count” value [6] was -56% and the “Percent reversal of LMWH anticoagulation, FNa” value (LMWH (LHN-1, Logiparin) [7]; [11]) was 95%. For the same compound, the “Percent reversal of LMWH anticoagulation, FXa” value (LMWH (LHN-1, Logiparin) [7]; [11]) was 64%, the “Percent reversal of LMWH anticoagulation, TCT” value (LMWH (LHN-1, Logiparin) [7]; [11]) was 99% and the “Percent reversal of LMWH anticoagulation, ACT” value (LMWH (LHN-1, Logiparin) [7]; [12]) was 87%. The “Percent reversal of LMWH anticoagulation, FNa” value (LMWH (LHN-1, Logiparin) [7]; [12]) was 72%, the “Percent reversal of LMWH anticoagulation, FXa” value (LMWH (LHN-1, Logiparin) [7]; [12]) was 34% and the “Percent reversal of LMWH anticoagulation, TCT” value (LMWH (LHN-1, Logiparin) [7]; [12]) was 95%. The “Percent reversal of LMWH anticoagulation, ACT” value (LMWH (LHN-1, Logiparin) [7]; [13]) was 98%, the “Percent reversal of LMWH anticoagulation, FNa” value (LMWH (LHN-1, Logiparin) [7]; [13]) was 74% and the “Percent reversal of LMWH anticoagulation, FXa” value (LMWH (LHN-1, Logiparin) [7]; [13]) was 52%. The “Percent reversal of LMWH anticoagulation, TCT” value (LMWH (LHN-1, Logiparin) [7]; [13]) was 100%, the “Percent reversal of LMWH anticoagulation, ACT” value (LMWH (LHN-1, Logiparin) [7]; dogs, Logiparin, agent administered over 10 sec, 3 min post-administration) was 87% and the aPTT reversal (LMWH (LHN-1, Logiparin) [8]; dogs, 3 minute measurement) was 64%. The aPTT reversal (LMWH (LHN-1, Logiparin) [8]; dogs, 10 minute measurement) was 95%, the aPTT reversal (LMWH (LHN-1, Logiparin) [8]; dogs, 30 minute measurement) was 93% and the “Percent reversal of LMWH anticoagulation, ACT” value (LMWH (LHN-1, Logiparin) [8]; dogs, Logiparin 150 IU/kg, agent 1.5 mg/kg IV after 30 min, 3 min post-administration, corrected for metabolism) was 87%. For the same compound, the “Percent reversal of LMWH anticoagulation, FNa” value (LMWH (LHN-1, Logiparin) [8]; same study, 3 min) was 96%, the “Percent reversal of LMWH anticoagulation, FXa” value (LMWH (LHN-1, Logiparin) [8]; same study, 3 min) was 64% and the “Percent reversal of LMWH anticoagulation, TCT” value (LMWH (LHN-1, Logiparin) [8]; same study, 3 min) was 99%. The “Percent reversal of LMWH anticoagulation, ACT” value (LMWH (LHN-1, Logiparin) [8]; same study, 10 min) was 93%, the “Percent reversal of LMWH anticoagulation, FNa” value (LMWH (LHN-1, Logiparin) [8]; same study, 10 min) was 72% and the “Percent reversal of LMWH anticoagulation, FXa” value (LMWH (LHN-1, Logiparin) [8]; same study, 10 min) was 34%. For the same compound, the “Percent reversal of LMWH anticoagulation, TCT” value (LMWH (LHN-1, Logiparin) [8]; same study, 10 min) was 95%, the “Percent reversal of LMWH anticoagulation, ACT” value (LMWH (LHN-1, Logiparin) [8]; same study, 30 min) was 102% and the “Percent reversal of LMWH anticoagulation, FNa” value (LMWH (LHN-1, Logiparin) [8]; same study, 30 min) was 74%. The “Percent reversal of LMWH anticoagulation, FXa” value (LMWH (LHN-1, Logiparin) [8]; same study, 30 min) was 52% and the “Percent reversal of LMWH anticoagulation, TCT” value (LMWH (LHN-1, Logiparin) [8]; same study, 30 min) was 96%.
With PK4 S3 KPVK6 PKVSK6 G2 K4 [[+21]] the “in vivo heparin reversal (summary)” value ([9]; dogs, standard heparin) was “nearly complete reversal”, the “Percent reversal of heparin anticoagulation, ACT” value ([9]; dogs, 3 min post-administration) was 81% and the “Percent reversal of heparin anticoagulation, ACT” value ([9]; dogs, 30 min) was 85%. For the same compound, the “Percent reversal of heparin anticoagulation, APTT” value ([9]; same study, 3 min) was 88%, the “Percent reversal of heparin anticoagulation, FNa” value ([9]; same study, 3 min) was 59% and the “Percent reversal of heparin anticoagulation, FXa” value ([9]; same study, 3 min) was 55%. The “Percent reversal of heparin anticoagulation, PT” value ([9]; same study, 3 min) was 97%, the “Percent reversal of heparin anticoagulation, TCT” value ([9]; same study, 3 min) was 91% and the “Percent reversal of heparin anticoagulation, APTT” value ([9]; same study, 30 min) was 85%. For the same compound, the “Percent reversal of heparin anticoagulation, FXa” value ([9]; same study, 30 min) was 49%, the “Percent reversal of heparin anticoagulation, PT” value ([9]; same study, 30 min) was 93% and the “Percent reversal of heparin anticoagulation, TCT” value ([9]; same study, 30 min) was 79%. The platelet counts [1] was “thrombocytopenia”, the Maximal thrombocytopenia [4] was -43% and the ΔHR [2] was -21. The ΔMAP [2] was -35, the “average total toxicity score (TTS±SD)” value [2] was -6.9±3.8 and the ΔCO [2] was -44%. It also gave a ΔVO2 [2] of -38%.
